Experimental data published in US5849777A, “Cell differentiation induction with mevalonate and mevalonolactone derivatives” (University of New Mexico, priority 1995, dated 1998).
Values belong to the compound of their own block, whether it stands above or below them.

Key:
[1] = test system: Human peripheral blood leukocytes; test: IgG production by human peripheral blood leukocytes (HPBL) in vitro; format: cell-based; conditions: for immune enhancement (in words): Examples II and Table I
Description: Human peripheral blood leukocytes were cultured in a standard tissue culture medium. Aliquots of these cultured cells (1,000,000 cells/ml medium) were cultured for 6 hours, and the specified amount of Formula II compound was added; the cells were then cultured for an additional 90 hours. Sheep red blood cells (SRBC) conditioned with class-specific (IgG) goat anti-human antiserum (1:400) for 2 hours; then guinea pig complement (2%) for 2 hours were conjugated to Protein A as described in detail in Radioimaging and Radioimmunotherapy, Eds. S. W. Burchiel and B. A. Rhodes, Elsevier Science Publishing; New York, 1983, pp. 125-127, incorporated herein by reference.
1. Concentration inhibiting nonspecific IgG production below normal production.

[2] = target: T1, rat liver HMG-COA reductase (Rattus norvegicus, UniProt P51639); test: inhibition of rat liver HMG-CoA reductase activity; format: biochemical; conditions: read-out: IC50 (concentration for 50% inhibition of rat liver HMG-COA reductase activity); Table I
T1 construct: rat liver HMG-COA reductase activity; from tissue; host or cells: rat liver
T1 sequence (P51639 1-887): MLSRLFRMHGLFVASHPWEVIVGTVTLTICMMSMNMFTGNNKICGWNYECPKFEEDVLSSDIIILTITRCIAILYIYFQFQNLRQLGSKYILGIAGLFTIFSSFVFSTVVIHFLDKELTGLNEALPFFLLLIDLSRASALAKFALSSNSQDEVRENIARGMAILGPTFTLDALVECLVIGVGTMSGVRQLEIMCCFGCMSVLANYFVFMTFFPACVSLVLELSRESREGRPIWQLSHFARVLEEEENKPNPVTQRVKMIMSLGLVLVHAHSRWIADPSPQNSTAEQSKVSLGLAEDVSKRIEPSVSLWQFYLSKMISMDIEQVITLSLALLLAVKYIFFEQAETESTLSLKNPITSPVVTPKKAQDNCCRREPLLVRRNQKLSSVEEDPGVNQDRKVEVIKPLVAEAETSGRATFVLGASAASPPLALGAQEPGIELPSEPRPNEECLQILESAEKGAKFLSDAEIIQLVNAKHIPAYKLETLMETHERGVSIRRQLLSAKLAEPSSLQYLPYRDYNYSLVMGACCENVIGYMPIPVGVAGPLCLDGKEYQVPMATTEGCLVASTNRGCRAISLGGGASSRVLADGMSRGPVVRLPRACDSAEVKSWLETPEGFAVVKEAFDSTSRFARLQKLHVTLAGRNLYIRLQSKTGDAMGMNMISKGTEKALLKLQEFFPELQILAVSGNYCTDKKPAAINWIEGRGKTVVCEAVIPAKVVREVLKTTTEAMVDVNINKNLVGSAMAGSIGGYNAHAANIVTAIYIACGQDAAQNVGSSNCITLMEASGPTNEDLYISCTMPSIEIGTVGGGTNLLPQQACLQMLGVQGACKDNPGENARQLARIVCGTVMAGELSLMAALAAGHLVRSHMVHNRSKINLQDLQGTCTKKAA
Description: While a number of the compounds of the Formula I are known HMG-CoA reductase inhibitors, there is no apparent correlation between HMG-CoA reductase inhibitory activity and promotion of differentiation activity according to the invention. […] Accordingly, useful guidelines for selecting compounds having optimal differentiation-promoting activity according to the invention broadly comprise selecting compounds of the Formula I having the specified stereochemical configuration and an in vitro immunological activity as set forth in the in vitro assay of Example II, of at least about 3-fold.

Canine glioma cells [3] = test: inhibition of adherence (ADH50%); format: cell-based; conditions: Canis lupus familiaris, Glioma cell
Description: (§1) Cytotoxicity was determined as a function of simple survival (T50 %), adherence (ADH50 %) and thymidine incorporation (I50%) of the cells.
(§2) Estimates of the 50% inhibitory concentrations of the various drugs tested on simple survival (T50%) and adherence (ADH50%) for canine glioma cells.

Canine glioma cells [4] = test: cytotoxicity as simple survival (T50%); format: cell-based; conditions: Canis lupus familiaris, Glioma cell, read-out: T 50%
Description: as §1, §2

Canine glioma cells [5] = test: inhibition of thymidine incorporation (I50%); format: cell-based; conditions: Canis lupus familiaris, Glioma cell, read-out: I50%
Description: as §1
Estimates of the I50% of the various drugs tested on thymidine incorporation of canine glioma cells in culture.

IC50 [2]: 1350 nM
Compound: CC(C)c1nc(-c2ccccc2)n(-c2ccc(F)cc2)c1/C=C/[C@@H](O)C[C@H](O)CC(=O)O [IIb]
Inhibitory Concentration (concentration inhibiting nonspecific IgG production below normal production) ([1]; HPBL, additional 90 h culture): none found

Compound: CC(C)c1nc(-c2ccccc2)n(-c2ccc(F)cc2)c1/C=C/[C@@H](O)C[C@@H](O)CC(=O)O [IId, reference compound]
activation at 0.1 µM ([1]; Homo sapiens, Leukocyte, 90 h, 100 nM, read-out: Stimulation of IgG Production): 320%

IC50 (Canine glioma cells [3]; 24 h exposure): 50 nM
IC50 (Canine glioma cells [3]; 72 h exposure): 75 nM
IC50 (Canine glioma cells [3]; 96 h exposure): 75 nM
IC50 (Canine glioma cells [5]; 24 h exposure): 100 nM
IC50 (Canine glioma cells [5]; 48 h exposure): 75 nM
IC50 (Canine glioma cells [5]; 72 h exposure): 30 nM
IC50 (Canine glioma cells [5]; 96 h exposure): 50 nM
Compound: CC[C@H](C)C(=O)O[C@H]1CCC=C2C=C[C@H](C)[C@H](CC[C@@H]3C[C@@H](O)CC(=O)O3)[C@H]21 [compactin, reference compound]
immune enhancement (in words) [1]: no immune enhancement
IC50 (Canine glioma cells [4]; 24 h exposure): 500 nM
IC50 (Canine glioma cells [4]; 72 h exposure): 200 nM
IC50 (Canine glioma cells [4]; 96 h exposure): 350 nM

Compound: CC[C@H](C)C(=O)O[C@H]1C[C@@H](C)C=C2C=C[C@H](C)[C@H](CC[C@@H]3C[C@@H](O)CC(=O)O3)[C@H]21 [lovastatin, reference compound]
immune enhancement (in words) [1]: no immune enhancement
